The test system of experiment [1] is panel of experts in the sensory evaluation of foods and beverages. The experiment is described as follows: Sensory evaluation of sweetness linger by expert panel. Type of experiment: in vivo. More on the design: key: 0=no sweetness linger; 1=very slight sweetness linger; 2=slight sweetness linger; 3=moderate sweetness linger; 4=moderately high sweetness linger; 5=high sweetness linger. To be noted: for Sweetness Linger rating as defined for the protocol's controls: scale anchors: sucrose, 500 ppm REBA control sample; for Sweetness linger rating: scale 0-5. As for the experimental part: In a particular embodiment, a panel of assessors is used to measure the reduction of sweetness linger. Briefly described, a panel of assessors (generally 8 to 12 individuals) is trained to evaluate sweetness perception and measure sweetness at several time points from when the sample is initially taken into the mouth until 3 minutes after it has been expectorated. […] A decrease in score for a time point measured after the sample has cleared the mouth indicates there has been a reduction in sweetness perception.
The panel of assessors may be trained using procedures well known to those of ordinary skill in the art. In a particular embodiment, the panel of assessors may be trained using the Spectrum™ Descriptive Analysis Method (Meilgaard et al, Sensory Evaluation Techniques, 3rd edition, Chapter 11). Desirably, the focus of training should be the recognition of and the measure of the basic tastes; specifically, sweet. In order to ensure accuracy and reproducibility of results, each assessor should repeat the measure of the reduction of sweetness linger about three to about five times per sample, taking at least a five minute break between each repetition and/or sample and rinsing well with water to clear the mouth.
Generally, the method of measuring sweetness comprises taking a 10 mL sample into the mouth, holding the sample in the mouth for 5 seconds and gently swirling the sample in the mouth, rating the sweetness intensity perceived at 5 seconds, expectorating the sample (without swallowing following expectorating the sample), rinsing with one mouthful of water (e.g., vigorously moving water in mouth as if with mouth wash) and expectorating the rinse water, rating the sweetness intensity perceived immediately upon expectorating the rinse water, waiting 45 seconds and, while waiting those 45 seconds, identifying the time of maximum perceived sweetness intensity and rating the sweetness intensity at that time (moving the mouth normally and swallowing as needed), rating the sweetness intensity after another 10 seconds, rating the sweetness intensity after another 60 seconds (cumulative 120 seconds after rinse), and rating the sweetness intensity after still another 60 seconds (cumulative 180 seconds after rinse). Between samples take a 5 minute break, rinsing well with water to clear the mouth.
Sensory evaluation of the samples prepared in Example Set G was carried out under the following protocol, similar to that described hereinabove. In this test protocol, none of the samples were swallowed. […] Immediately upon sensing maximal sweetness, the sample was expectorated, the mouth was rinsed with water and the rate of sweetness decay (“Sweetness Linger”) was measured, where attention was focused on the sweetness 3-4 min after the water rinse. […]

Experiment [2] in a line: Sweetness level as sucrose equivalent.

With `OC[C@H]1O[C@@](CO)(O[C@H]2O[C@H](CO)[C@@H](O)[C@H](O)[C@H]2O)[C@@H](O)[C@@H]1O` [sugar, sucrose], the “Sweetness Linger rating as defined for the protocol's controls” value in experiment [1] was found to be 0.

rebaudioside A: the results for the sucrose equivalence in experiment [2] (180 ppm rebaudioside A in 1:1 diluted commercial beverage) and in experiment [2] (400 ppm REBA in citric acid/potassium citrate composition) were 5 % sucrose and 8 g sucrose, respectively. In addition, the Sweetness linger rating in experiment [1] (Example Set G: citric acid/potassium citrate composition equivalent to diet lemon-lime beverage (citrate buffer), sweetness 3-4 min after water rinse) is reported as 5; in experiment [1] (Example Set H: carbon-treated water, phosphoric acid (75%) to pH 2.4-2.5) it was 5. Also, the “Sweetness Linger rating as defined for the protocol's controls” value in experiment [1] amounted to 5.

Source of the values: patent US8962058B2, “High-potency sweetener composition with antioxidant and compositions sweetened therewith” (The Coca-Cola Company, priority 2005, dated 2015).
